Where two headings read alike, the source gives them in different places.
Tests used:
Assay in all cases: Ras GTP binding domain inhibition assay (labeled GTP)
[1] = target: KRas G12C/Q61H double mutant (Homo sapiens (Human), UniProt P01116, G12C/Q61H); conditions: 20 μM compound
Summary of the method: (§1)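 Labelled-GTP binding: plate-captured His-KRas protein was pre-exposed to compound for 3 h at room temperature (single 20 μM point or dilution series, 1% DMSO, Tris pH 7.5/MgCl2/DTT buffer). Cy3- or Cy5-GTP was then added for 45 min. Washed wells were read for retained fluorescence to give inhibition or IC50.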

KRas wild type = KRas wild type (Homo sapiens (Human), UniProt P01116); conditions: 20 μM compound
Summary of the method: as §1

KRas Q61H mutant = KRas Q61H mutant (Homo sapiens (Human), UniProt P01116, Q61H); conditions: 20 μM compound
Summary of the method: as §1

KRas G12C mutant = KRas G12C mutant (Homo sapiens (Human), UniProt P01116, G12C); conditions: 20 μM compound
Summary of the method: as §1

[2] = target: KRas G12D/Q61H double mutant (Homo sapiens (Human), UniProt P01116, G12D/Q61H); conditions: for inhibition at 20 µM: 20 μM compound; for IC50: serial dilution, read-out: KRas G12D Q61H (classes E-H, IC50)
Summary of the method: as §1

KRas G12D mutant protein = KRas G12D mutant protein (Homo sapiens (Human), UniProt P01116, G12D); conditions: 20 μM compound
[3] = read-out: % Inhibition at 20 μM KRas G12C Q61H
[4] = read-out: % Inhibition at 20 μM KRas wild type
[5] = read-out: % Inhibition at 20 μM KRas Q61H
[6] = read-out: % Inhibition at 20 μM KRas G12C
[7] = read-out: % Inhibition at 20 μM KRas G12D Q61H
[8] = read-out: % Inhibition at 20 μM KRas G12D

Sequence of KRas G12C mutant (P01116-2 other isoform, or with tags, fused parts or gaps G12C): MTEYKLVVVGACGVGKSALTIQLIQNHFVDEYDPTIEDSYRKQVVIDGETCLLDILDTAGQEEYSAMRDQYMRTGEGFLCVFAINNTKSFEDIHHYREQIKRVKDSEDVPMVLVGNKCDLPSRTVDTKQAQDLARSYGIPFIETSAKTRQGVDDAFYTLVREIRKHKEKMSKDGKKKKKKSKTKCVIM
Sequence of KRas Q61H mutant (P01116-2 other isoform, or with tags, fused parts or gaps Q61H): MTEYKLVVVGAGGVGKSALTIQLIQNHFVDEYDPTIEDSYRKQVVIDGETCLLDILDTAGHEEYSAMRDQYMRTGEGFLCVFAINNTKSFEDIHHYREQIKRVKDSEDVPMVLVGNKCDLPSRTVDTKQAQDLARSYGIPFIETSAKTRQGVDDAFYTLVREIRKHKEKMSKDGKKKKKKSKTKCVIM
Sequence of KRas G12C/Q61H double mutant (P01116-2 other isoform, or with tags, fused parts or gaps G12C/Q61H): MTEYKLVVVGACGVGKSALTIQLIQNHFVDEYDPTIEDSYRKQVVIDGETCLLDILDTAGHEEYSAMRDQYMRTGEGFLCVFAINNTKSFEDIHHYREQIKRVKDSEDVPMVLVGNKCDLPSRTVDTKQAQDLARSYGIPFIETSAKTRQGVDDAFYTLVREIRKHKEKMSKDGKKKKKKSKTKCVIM
Sequence of KRas G12D/Q61H double mutant (P01116-2 other isoform, or with tags, fused parts or gaps G12D/Q61H): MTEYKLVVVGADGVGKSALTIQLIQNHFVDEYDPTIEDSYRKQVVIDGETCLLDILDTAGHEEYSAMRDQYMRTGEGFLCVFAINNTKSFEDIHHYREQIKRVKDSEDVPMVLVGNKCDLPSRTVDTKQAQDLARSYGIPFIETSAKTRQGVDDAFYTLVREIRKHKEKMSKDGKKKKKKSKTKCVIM
Sequence of KRas wild type (P01116-2 other isoform, or with tags, fused parts or gaps): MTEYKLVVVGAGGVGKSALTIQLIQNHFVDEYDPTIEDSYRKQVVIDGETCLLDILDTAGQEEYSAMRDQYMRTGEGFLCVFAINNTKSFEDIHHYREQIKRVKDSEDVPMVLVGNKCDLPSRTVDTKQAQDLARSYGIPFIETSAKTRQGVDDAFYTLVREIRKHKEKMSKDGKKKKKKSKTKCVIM
Sequence of KRas G12D mutant protein (P01116-2 other isoform, or with tags, fused parts or gaps G12D): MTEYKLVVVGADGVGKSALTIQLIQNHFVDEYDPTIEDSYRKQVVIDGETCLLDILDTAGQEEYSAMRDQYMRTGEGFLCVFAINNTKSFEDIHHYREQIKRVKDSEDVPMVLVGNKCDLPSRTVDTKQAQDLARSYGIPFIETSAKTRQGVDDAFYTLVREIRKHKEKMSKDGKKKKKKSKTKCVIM

Row | Compound | inhibition at 20 µM [1, 3] | inhibition at 20 µM (KRas wild type; [4]) | inhibition at 20 µM (KRas Q61H mutant; [5]) | inhibition at 20 µM (KRas G12C mutant; [6]) | inhibition at 20 µM [2, 7] | inhibition at 20 µM (KRas G12D mutant protein; [8]) | IC50 [2] | inhibition at 20 µM ([1]; KRas G12C/Q61H double mutant, read-out: % Inhibition at 20 μM of K-Ras mutant and wild-type protein, KRas G12C Q61H) | inhibition at 20 µM (KRas wild type; KRas wild type, read-out: % Inhibition at 20 μM of K-Ras mutant and wild-type protein, KRas wild type) | inhibition at 20 µM (KRas Q61H mutant; KRas Q61H, read-out: % Inhibition at 20 μM of K-Ras mutant and wild-type protein, KRas Q61H) | inhibition at 20 µM (KRas G12C mutant; KRas G12C, read-out: % Inhibition at 20 μM of K-Ras mutant and wild-type protein, KRas G12C) | inhibition at 20 µM ([2]; KRas G12D/Q61H double mutant, read-out: % Inhibition at 20 μM of K-Ras mutant and wild-type protein, KRas G12D Q61H) | inhibition at 20 µM (KRas G12D mutant protein; KRas G12D, read-out: % Inhibition at 20 μM of K-Ras mutant and wild-type protein, KRas G12D)
1 | Oc1nc(-c2ccccn2)nc2c(-c3cc(F)ccc3OC(F)F)csc12 [drawing 2860] | 25 to 50% | 1 to 25% | 51 to 75% | 25 to 50% | 25 to 50% | 51 to 75% |  |  |  |  |  |  | 
2 | Cn1nnc2ccc(-c3csc4c(O)nc(-c5ccccn5)nc34)cc21 [drawing 2861] | 51 to 75% | 76 to 100% | 51 to 75% | 1 to 25% | 51 to 75% | 51 to 75% |  |  |  |  |  |  | 
3 | O=S1(=O)CCN(Cc2cccc(-c3csc4c(O)nc(-c5ccccn5)nc34)c2)CC1 [drawing 2864] | 51 to 75% | 51 to 75% | 51 to 75% | 25 to 50% | 51 to 75% | 51 to 75% |  |  |  |  |  |  | 
4 | Oc1nc(-c2ccccn2)nc2c(-c3ccccc3F)csc12 [drawing 2868] | 51 to 75% | 51 to 75% | 51 to 75% | 25 to 50% | 51 to 75% | 51 to 75% |  |  |  |  |  |  | 
5 | COc1ccccc1-c1csc2c(O)nc(-c3ccccn3)nc12 [drawing 2870] | 25 to 50% | 25 to 50% | 25 to 50% | 25 to 50% | 25 to 50% | 51 to 75% |  |  |  |  |  |  | 
6 | Oc1nc(-c2ccccn2)nc2c(-c3ccc(F)cc3F)csc12 [drawing 2871] | 51 to 75% | 25 to 50% | 51 to 75% | 25 to 50% | 51 to 75% | 51 to 75% |  |  |  |  |  |  | 
7 | COc1cccc(-c2csc3c(O)nc(-c4ccccn4)nc23)c1 [drawing 2872] | 1 to 25% | 51 to 75% | 1 to 25% | 25 to 50% | 25 to 50% | 76 to 100% |  |  |  |  |  |  | 
8 | Oc1nc(-c2ccccn2)nc2c(-c3cccc(C(F)(F)F)c3)csc12 [drawing 2873] | 25 to 50% | 25 to 50% | 51 to 75% | 25 to 50% | 25 to 50% | 51 to 75% |  |  |  |  |  |  | 
9 | COc1ccc(F)cc1-c1csc2c(O)nc(-c3ccccn3)nc12 [drawing 2874] | 25 to 50% | 25 to 50% | 25 to 50% | 25 to 50% | 51 to 75% | 51 to 75% |  |  |  |  |  |  | 
10 | Oc1nc(-c2ccccn2)nc2c(-c3ccsc3)csc12 [drawing 2875] | 25 to 50% | 1 to 25% | 25 to 50% | 51 to 75% | 25 to 50% | 51 to 75% |  |  |  |  |  |  | 
11 | Oc1nc(-c2ccccn2)nc2c(-c3ccc(OC(F)F)cc3F)csc12 [drawing 2876] | 51 to 75% | 51 to 75% | 51 to 75% | 25 to 50% | 51 to 75% | 51 to 75% |  |  |  |  |  |  | 
12 | CC(C)COc1ccc(-c2csc3c(O)nc(-c4ccccn4)nc23)cn1 [drawing 2877] | 51 to 75% | 51 to 75% | 51 to 75% | 51 to 75% | 51 to 75% | 51 to 75% |  |  |  |  |  |  | 
13 | Oc1nc(-c2ccccn2)nc2c(-c3ccc4c(c3)OCO4)csc12 [drawing 2879] | 51 to 75% | 51 to 75% | 51 to 75% | 25 to 50% | 51 to 75% | 51 to 75% |  |  |  |  |  |  | 
14 | CC(C)(O)c1ccc(-c2csc3c(O)nc(-c4ccccn4)nc23)c(F)c1 [drawing 2880] | 51 to 75% | 51 to 75% | 51 to 75% | 51 to 75% | 51 to 75% | 51 to 75% |  |  |  |  |  |  | 
15 | COc1ccc(-c2csc3c(O)nc(-c4ccccn4)nc23)c(C)c1 [drawing 2881] | 51 to 75% | 25 to 50% | 51 to 75% | 51 to 75% | 51 to 75% | 51 to 75% |  |  |  |  |  |  | 
16 | Oc1nc(-c2ccccn2)nc2c(-c3ccccc3C(F)F)csc12 [drawing 2883] | 51 to 75% | 25 to 50% | 51 to 75% | 25 to 50% | 51 to 75% | 51 to 75% |  |  |  |  |  |  | 
17 | COc1cc(-c2csc3c(O)nc(-c4ccccn4)nc23)cnc1C(F)(F)F [drawing 2884] | 51 to 75% | 51 to 75% | 51 to 75% | 51 to 75% | 51 to 75% | 51 to 75% |  |  |  |  |  |  | 
18 | CNC(=O)c1ccc(-c2csc3c(O)nc(-c4ccccn4)nc23)cc1C [drawing 2885] | 25 to 50% | 25 to 50% | 25 to 50% | 25 to 50% | 25 to 50% | 25 to 50% |  |  |  |  |  |  | 
19 | OCC1(c2ccc(-c3csc4c(O)nc(-c5ccccn5)nc34)cc2)CC1 [drawing 2886] | 51 to 75% | 76 to 100% | 51 to 75% | 25 to 50% | 51 to 75% | 76 to 100% |  |  |  |  |  |  | 
20 | Cc1cnccc1-c1csc2c(O)nc(-c3ccccn3)nc12 [drawing 2888] | 51 to 75% | 76 to 100% | 51 to 75% | 25 to 50% | 51 to 75% | 51 to 75% |  |  |  |  |  |  | 
21 | O=C(CCn1ccnc1)Nc1nc(-c2ccccn2)nc2sccc12 [drawing 2889] | 51 to 75% | 51 to 75% | 76 to 100% | 25 to 50% | 51 to 75% | 76 to 100% |  |  |  |  |  |  | 
22 | O=C(CCc1nn[nH]n1)Nc1nc(-c2ccccn2)nc2sccc12 [drawing 2890] | 51 to 75% | 51 to 75% | 51 to 75% | 25 to 50% | 51 to 75% | 51 to 75% |  |  |  |  |  |  | 
23 | O=C(CCc1cncnc1)Nc1nc(-c2ccccn2)nc2sccc12 [drawing 2891] | 76 to 100% | 51 to 75% | 51 to 75% | 25 to 50% | 51 to 75% | 51 to 75% |  |  |  |  |  |  | 
24 | Oc1nc(-c2ccccn2)nc2c(-c3ccccn3)csc12 [drawing 2896] | 51 to 75% | 51 to 75% | 25 to 50% | 25 to 50% | 1 to 25% | 25 to 50% |  |  |  |  |  |  | 
25 | CN1CCN(c2nc(-c3ccccn3)nc3scc(C(=O)NCCc4cnc(O)nc4)c23)CC1 [drawing 2899] | 51 to 75% | 1 to 25% | 51 to 75% | 1 to 25% | 25 to 50% | 51 to 75% | > 30 µM |  |  |  |  |  | 
26 | Oc1nc(-c2ccccn2)nc2c(-c3cc(F)cc(F)c3)csc12 [drawing 2900] | 51 to 75% | 25 to 50% | 51 to 75% | 51 to 75% | 51 to 75% | 51 to 75% | > 30 µM |  |  |  |  |  | 
27 | CN(C)Cc1ccc(F)c(-c2csc3c(O)nc(-c4ccccn4)nc23)c1 [drawing 2901] | 51 to 75% | 51 to 75% | 51 to 75% | 25 to 50% | 25 to 50% | 51 to 75% | 11 to 30 µM |  |  |  |  |  | 
28 | Oc1nc(-c2ccccn2)nc2c(-c3ccc4c(c3)CCCO4)csc12 [drawing 2902] | 25 to 50% | 25 to 50% | 51 to 75% | 25 to 50% | 25 to 50% | 51 to 75% |  |  |  |  |  |  | 
29 | Cc1sc2c(O)nc(-c3ccccn3)nc2c1-c1ccccc1 [drawing 2905] | 25 to 50% | 1 to 25% | 25 to 50% | 25 to 50% | 51 to 75% | 51 to 75% |  |  |  |  |  |  | 
30 | Cc1sc2c(O)nc(-c3ccccn3)nc2c1-c1cccnc1 [drawing 3468] |  |  |  |  |  |  |  | 51 to 75% | 25 to 50% | 51 to 75% | 25 to 50% | 25 to 50% | 51 to 75%
